Reference: article PMC4595979 (Horticulture Research, 2015)

Assays:
LOX2:Md:2b (MdLOX2b) = target: T1, LOX2:Md:2b (MdLOX2b) (Malus domestica, UniProt S4ULD7); experiment: HPLC product analysis; type: biochemical; conditions: 50 mM sodium phosphate pH 7.5, 25 °C, 0.3 mM substrate
T1 sequence (S4ULD7 1-905): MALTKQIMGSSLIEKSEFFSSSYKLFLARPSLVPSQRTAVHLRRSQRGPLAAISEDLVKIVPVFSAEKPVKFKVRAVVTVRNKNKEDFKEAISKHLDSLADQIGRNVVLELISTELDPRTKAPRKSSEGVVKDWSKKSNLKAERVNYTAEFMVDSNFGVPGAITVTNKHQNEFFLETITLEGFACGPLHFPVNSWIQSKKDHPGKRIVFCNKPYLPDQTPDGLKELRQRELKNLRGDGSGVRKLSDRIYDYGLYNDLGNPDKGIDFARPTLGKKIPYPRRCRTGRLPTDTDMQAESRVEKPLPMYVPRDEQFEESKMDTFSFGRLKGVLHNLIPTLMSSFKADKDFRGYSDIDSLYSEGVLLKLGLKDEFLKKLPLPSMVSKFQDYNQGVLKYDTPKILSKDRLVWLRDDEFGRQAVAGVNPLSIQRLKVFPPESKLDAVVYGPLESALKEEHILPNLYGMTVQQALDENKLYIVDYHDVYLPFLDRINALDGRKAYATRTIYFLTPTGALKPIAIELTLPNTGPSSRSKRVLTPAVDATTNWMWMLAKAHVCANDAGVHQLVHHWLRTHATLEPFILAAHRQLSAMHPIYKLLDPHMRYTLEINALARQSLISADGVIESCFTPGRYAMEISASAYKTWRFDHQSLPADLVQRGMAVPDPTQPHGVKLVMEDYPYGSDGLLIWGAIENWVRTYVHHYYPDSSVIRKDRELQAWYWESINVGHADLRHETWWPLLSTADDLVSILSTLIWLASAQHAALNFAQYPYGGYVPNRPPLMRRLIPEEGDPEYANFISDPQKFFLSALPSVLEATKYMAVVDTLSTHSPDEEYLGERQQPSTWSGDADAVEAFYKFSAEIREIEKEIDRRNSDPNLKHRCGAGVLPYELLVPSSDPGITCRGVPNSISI

LOX2:Md:2a (MdLOX2a) = target: T2, LOX2:Md:2a (MdLOX2a) (Malus domestica, UniProt S4U6N9); experiment: HPLC product analysis; type: biochemical; conditions: 50 mM sodium phosphate pH 7.5, 25 °C, 0.3 mM substrate
T2 sequence (S4U6N9 1-906): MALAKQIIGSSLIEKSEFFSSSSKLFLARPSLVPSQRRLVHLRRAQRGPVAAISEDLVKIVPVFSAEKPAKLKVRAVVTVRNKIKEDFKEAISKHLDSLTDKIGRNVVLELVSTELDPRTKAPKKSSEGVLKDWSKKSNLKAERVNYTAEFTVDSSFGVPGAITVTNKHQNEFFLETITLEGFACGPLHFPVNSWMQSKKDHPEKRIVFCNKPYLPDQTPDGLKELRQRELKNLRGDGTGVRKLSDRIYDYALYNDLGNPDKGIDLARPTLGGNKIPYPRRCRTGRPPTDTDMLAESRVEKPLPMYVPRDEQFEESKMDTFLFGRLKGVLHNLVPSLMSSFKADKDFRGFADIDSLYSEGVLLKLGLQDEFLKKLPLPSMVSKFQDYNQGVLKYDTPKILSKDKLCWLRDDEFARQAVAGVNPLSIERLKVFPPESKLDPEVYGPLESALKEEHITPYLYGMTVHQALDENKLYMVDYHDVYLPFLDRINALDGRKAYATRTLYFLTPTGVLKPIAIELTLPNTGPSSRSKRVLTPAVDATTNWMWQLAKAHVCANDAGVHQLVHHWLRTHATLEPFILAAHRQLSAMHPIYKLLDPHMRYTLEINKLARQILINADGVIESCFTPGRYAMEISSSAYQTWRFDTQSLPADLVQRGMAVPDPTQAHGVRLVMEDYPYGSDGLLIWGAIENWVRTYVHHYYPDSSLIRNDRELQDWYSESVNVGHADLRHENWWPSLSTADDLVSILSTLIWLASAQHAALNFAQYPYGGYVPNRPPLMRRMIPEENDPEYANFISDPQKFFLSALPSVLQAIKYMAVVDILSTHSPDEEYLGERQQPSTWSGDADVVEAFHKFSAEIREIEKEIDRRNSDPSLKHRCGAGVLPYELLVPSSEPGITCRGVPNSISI

Structure (SMILES) | HPLC product analysis (SP-HPLC, CP-HPLC) (LOX2:Md:2b (MdLOX2b)) | HPLC product analysis (SP-HPLC, CP-HPLC) (LOX2:Md:2a (MdLOX2a))
CC/C=C\C/C=C\C/C=C\CCCCCCCC(=O)O [α-linolenic acid] | LOX2:Md:2a and LOX2:Md:2b converted LA and LnA predominantly to 13-hydroperoxides | LOX2:Md:2a and LOX2:Md:2b converted LA and LnA predominantly to 13-hydroperoxides
CCCCC/C=C\C/C=C\CCCCCCCC(=O)O [linoleic acid] | LOX2:Md:2a and LOX2:Md:2b converted LA and LnA predominantly to 13-hydroperoxides | LOX2:Md:2a and LOX2:Md:2b converted LA and LnA predominantly to 13-hydroperoxides
